Laboratory results from patent EP0011663A1, “Toilet and dental preparations and their use for oral and dental hygiene” (UNILEVER PLC, priority 1978, dated 1980).
Entries after “also recorded” stand apart in the source; their conditions may differ. Like-named read-outs stand apart in the source and are kept apart here. Marks after values point to notes of the source that are not given here.

Experiments:
[1] = tested on: in vitro plaque; test: in vitro artificial plaque assay on saliva-coated aluminium plummets (Tests 1, 3, 4 and general statements); format: cell-based; conditions: for minimum amount of the metal compound necessary to result in control of plaque: at the site of formation of the plaque, under the conditions of the tests
Method: An in vitro test was used in the Tests described herein for examining and effects of chemotherapeutic agents on plaque, and was carried out in accordance with the test reported in the Journal of Dental Research, Vol. 55, February 1976, page B286, by R T Evans, P J Baker, R A Coburn and R J Genco. An assay system for producing artificial plaque was used to screen antiplaque agents rapidly under conditions which simulated those found in the oral cavity.
The in vitro plaque was formed at 37°C on uniformly- sized aluminium plummets which were first coated with saliva. The plummets were then placed in a growth medium inoculated with clinical plaque samples. After seven hours the plummets were suspended overnight in a 25;0 saliva mixture. On the second day, the plummets were immersed in a 50% saliva - 50% test compound mixture for one minute, placed in the growth medium for seven hours, retreated with the test mixture and suspended in 25% saliva overnight. The plummets were treated again on the third day and incubated in the growth medium for three hcurs. The plaques were removed from the plummets by donication into approximately six millilitres of buffer and quantitated by optical density (O.D.) in a Beckman DU spectrophotometer at 570 nm.
Positive controls were included to determine relative activity. Comparisons of antiplaque activity were then made within a given experiment. At least five replicas per compound were examined.
The experiments are conducted in the same manner, in a 15% ethanol/water media at pH 5.
The effects of 0.060% tetradecylamine (TDA) 0.05 SnCl4, and the combination of SnCl and TDA at these concentrations are examined by the artificial plaque method previously described, all with 15% ethanol, at pH 2.6.

[2] = tested on: in vitro plaque; test: in vitro artificial plaque assay, treatment on the third day eliminated (Test 2); format: cell-based; conditions: no treatment on third day
Method: An in vitro test was used in the Tests described herein for examining and effects of chemotherapeutic agents on plaque, and was carried out in accordance with the test reported in the Journal of Dental Research, Vol. 55, February 1976, page B286, by R T Evans, P J Baker, R A Coburn and R J Genco. An assay system for producing artificial plaque was used to screen antiplaque agents rapidly under conditions which simulated those found in the oral cavity. […] The assay gives reproducible, quantitative results and has the ability to distinguish between antibacterial agents which are clinically effective or non-effective as plaquae inhibitors. The in vitro plaque was formed at 37°C on uniformly- sized aluminium plummets which were first coated with saliva. The plummets were then placed in a growth medium inoculated with clinical plaque samples. After seven hours the plummets were suspended overnight in a 25;0 saliva mixture. On the second day, the plummets were immersed in a 50% saliva - 50% test compound mixture for one minute, placed in the growth medium for seven hours, retreated with the test mixture and suspended in 25% saliva overnight. The plummets were treated again on the third day and incubated in the growth medium for three hcurs. The plaques were removed from the plummets by donication into approximately six millilitres of buffer and quantitated by optical density (O.D.) in a Beckman DU spectrophotometer at 570 nm. […] Positive controls were included to determine relative activity. Comparisons of antiplaque activity were then made within a given experiment. At least five replicas per compound were examined. To test higher levels of tetradecylamine, the artificial plaque treatment previously described is eliminated on the third day to simulate infrequent use of the antiplaque products.

[3] = critical micellar concentration (CMC); format: physicochemical
[4] = tested on: rats; conditions: orally in rats; Seventh Issue of the Merck Index; cited from earlier work
[5] = tested on: plaque; conditions: clinical data, zinc salt alone; cited from earlier work
[6] = cation or anion as such, by the in vitro assay
[7] = metal salt alone 0.10 % Wt./Vol., 15% ethanol/water, pH 5
[8] = addition of CO2 to tetradecylamine
[9] = amine in place of tetradecylamine, in combination with metal compounds (zinc or aluminium)

For phosphate, the synergistic plaque reductions [1, 6] was “synergism has not been found; also recorded: synergism was not found”.

With `O.O.O.O=[N+]([O-])[O-].O=[N+]([O-])[O-].[Cu+2]` [Cu(NO3)2.3H2O, reference compound] the “% Reduction” value [1, 7] was -10%.

For `CCCCCCCCCCCCCCN` [TDA, tetradecylamine, reference compound], the inhibition at 0.06 % ([1]; TDA 0.06 % Wt./Vol., 15% ethanol/water, pH 5, read-out: % Reduction) was 19%, the inhibition at 0.06 % ([1]; TDA 0.06 % Wt/Vol., 15% ethanol, pH 2.6, read-out: % Reduction) was 19% and the “Average Optical Density” value ([1]; TDA .060 % Wt/Vol, 15% ethanol, pH 4.1, O.D. at 570 nm) was “.571”. The inhibition at 0.06 % ([1]; TDA .060 % Wt/Vol, 15% ethanol, pH 4.1, vs H2O control, read-out: % Reduction) was 18.8%, the antiplaque activity [1, 8] was “increased” and the inhibition at 0.06 % ([1]; dose-response curve, tetradecylamine 0.060%, no metal present, read-out: plaque reduction) was 18%. The inhibition at 0.2 % ([1]; dose-response curve, tetradecylamine 0.20%, no metal present, read-out: plaque reduction) was 44%, the “Average Optical Density” value ([2]; TDA .120 % Wt/Vol) was “.882” and the inhibition at 0.12 % ([2]; TDA .120 % Wt/Vol, vs H2O control, read-out: % Reduction) was 20.7%. The CMC [3, 8] was “lowering” and the “critical micellar concentration (CMC)” value ([3]; in combination with selected metals) was “lowered”.

For `O.O.O.O.O.O.[Cl][Ni][Cl]` [NiCl2.6H2O, reference compound], the “% Reduction” value [1, 7] was -17%.

For `[Mg+2]` [magnesium], the synergistic plaque reductions [1, 6] was “have not been found to give synergistic plaque reductions; also recorded: did not give synergistic plaque reductions”.

In the case of `[Cu]` [copper], the “minimum amount of the metal compound necessary to result in control of plaque” value (from here on “minimum amount”) [1] is given as about 500 µM and the LD50 [4] is given as 0.3-0.9 g/kg body weight.

In the case of `[Ni]` [nickel], the “minimum amount” value [1] is given as about 500 µM and the LD50 [4] is given as 0.3-0.9 g/kg body weight.

For `O.O.O.O.O.O.[Al+3].[Cl-].[Cl-].[Cl-]` [AlCl3.6H2O], the “Average Optical Density” value ([2]; AlCl3.6H2O 1.00 % Wt/Vol) was 1.218, the “% Reduction” value ([2]; AlCl3.6H2O 1.00 % Wt/Vol, negative = weight gain) was -9.4* % and the “Average Optical Density” value ([2]; AlCl3.6H2O .250 % Wt/Vol) was 1.080. For the same molecule, the “% Reduction” value ([2]; AlCl3.6H2O .250 % Wt/Vol, vs H2O control) was 3.0%.

In the case of `O=S(=O)(O)O` [sulphate], the synergistic plaque reductions [1, 6] is reported as “synergism has not been found; also recorded: synergism was not found”.

In the case of `[K+]` [potassium], the synergistic plaque reductions [1, 6] is reported as “have not been found to give synergistic plaque reductions; also recorded: did not give synergistic plaque reductions”.

In the case of `CCCCCCCCCCCCCCCCCCN(C)C` [N,N'-dimethyl-octadecylamine, reference compound], the synergistic plaque reductions [1, 9] is reported as “do not give synergistic plaque reductions”.

In the case of `[Zn]` [zinc], the “minimum amount” value [1] is listed as “about 0.001 molar” and the LD50 [4] is listed as 3-4 g/kg body weight.

For `[Sn]` [tin], the “minimum amount” value [1] is listed as about 500 µM and the LD50 [4] is listed as “about 0.05 g/kg body weight”.

In the case of `CCCCCCCCCCCCCCCC[n+]1ccccc1` [CPC, cetyl pyridinium chloride, reference compound], the “Average Optical Density” value ([1]; pH 4.1) is reported as “.515”.

With `F` [fluoride] the synergistic plaque reductions [1] was “synergism has not been found; also recorded: synergism was not found”.

In the case of `CCCCCCCCCCN` [decylamine, reference compound], the synergistic plaque reductions [1, 9] is reported as “do not give synergistic plaque reductions”.

In the case of `O.O.O.O.O.O.[Cl-].[Cl-].[Co+2]` [CoCl2.6H2O, reference compound], the “% Reduction” value [1, 7] is reported as -25%.

In the case of `[O-][n+]1ccccc1[S-].[O-][n+]1ccccc1[S-].[Zn+2]` [zinc salt], the reduction in plaque [5] is listed as “about 5%”.

In the case of `CCCCCCCCCCCCN` [Dodecylamine, reference compound], the synergistic plaque reductions [1, 9] is reported as “do not give synergistic plaque reductions” and the synergistic plaque reductions ([1]; amine in place of tetradecylamine, in combination with metal compounds (zinc or aluminium), listed as dodecylamine) is reported as “not found”.

In the case of `[Na]` [sodium], the synergistic plaque reductions [1, 6] is reported as “have not been found to give synergistic plaque reductions; also recorded: did not give synergistic plaque reductions”.

With `[HH]` [hydrogen] the synergistic plaque reductions [1, 6] was “have not been found to give synergistic plaque reductions; also recorded: did not give synergistic plaque reductions”.

In the case of `[Fe]` [iron], the “minimum amount” value [1] is listed as about 500 µM and the LD50 [4] is listed as 0.3-0.9 g/kg body weight.

In the case of `O.O.O.O.O.O.[Cl-].[Cl-].[Cl-].[Fe+3]` [FeCl3.6H2O, reference compound], the “% Reduction” value [1, 7] is reported as -38%.

With `[Cl-].[Cl-].[Zn+2]` [ZnCl2, reference compound] the “Average Optical Density” value ([1]; ZnCl2 .30 % Wt/Vol, 15% ethanol, pH 4.1, O.D. at 570 nm) was “.766” and the “% Reduction” value ([1]; ZnCl2 .30 % Wt/Vol, 15% ethanol, pH 4.1, vs H2O control, negative = weight gain) was -8.0* %.

For `[Co]` [cobalt], the “minimum amount” value [1] is given as about 500 µM and the LD50 [4] is given as 0.3-0.9 g/kg body weight.

With `CCCCCCCCCCCCN(C)C` [dimethyldodecylamine, reference compound] the synergistic plaque reductions [1, 9] was “do not give synergistic plaque reductions”.

For `O=[N+]([O-])O` [nitrate], the synergistic plaque reductions [1] was “synergism has not been found; also recorded: synergism was not found”.

With `O.O.O.O.O.[Cl][Sn]([Cl])([Cl])[Cl]` [SnCl4.5H2O, reference compound] the “% Reduction” value ([1]; SnCl4.5H2O 0.05 % Wt/Vol., 15% ethanol, pH 2.6, negative = weight gain) was -8* %.

With `Cl` [chloride] the synergistic plaque reductions [1, 6] was “synergism has not been found; also recorded: synergism was not found”.

With `[Ca+2]` [calcium] the synergistic plaque reductions [1] was “have not been found to give synergistic plaque reductions; also recorded: did not give synergistic plaque reductions”.

In the case of `[Al]` [aluminium], the “minimum amount” value [1] is given as “about 0.001 molar” and the LD50 [4] is given as 3-4 g/kg body weight.

With `CCCCCCCCCCCCCCCCN` [hexadecylamine, reference compound] the synergistic plaque reductions [1, 9] was “do not give synergistic plaque reductions; also recorded: not found”.
